The results in this text go back to ChEMBL document CHEMBL1141328, “Biologically active aspidofractinine, rhazinilam, akuammiline, and vincorine alkaloids from Kopsia” (J Nat Prod, 2007).

The structures appear in SMILES notation. Some results are limits rather than exact numbers.

The IC50 is the concentration at which inhibition is half-maximal.

Common to all, as to format: functional, cell-based
For test [1], the system named is KB. In words: Cytotoxicity against vincristine-resistant human KB cells.
Test [2] is described as follows: Cytotoxicity against vincristine-resistant human KB/VJ300 cells.
The nature of test [3]: Cytotoxicity against vincristine-resistant human KB/VJ300 cells in presence of 0.121 uM vincristine.
For test [4], the system named is KB. In words: Cytotoxicity against human KB cells.
Test [5] in a line: Cytotoxicity against human KB/VJ300 cells.

In the case of `COC(=O)N1c2ccc(OC)cc2[C@@]23CCN4CCC[C@]5(CC[C@]12[C@](O)(C(=O)OC)[C@H]5O)[C@H]43` [KOPSILOSCINE D], the IC50 is above 25 µg/mL in test [1], above 25 µg/mL in test [2] and 25.1 µM in test [3].
Regarding `C/C=C1/CN2CC[C@@]34c5ccccc5C[C@@]23CC[C@H]1C4(CO)C(=O)OC` (stereo partly specified) [VINCOPHYLLINE], the IC50 in test [1], in test [2] and in test [3] was above 25 µg/mL each time.
With `COC(=O)N1c2ccccc2[C@@]23CCN4CC[C@H](O)[C@@]5(CC[C@]12[C@](O)(C(=O)OC)[C@H]5O)[C@H]43` [KOPSILOSCINE C], the IC50 in test [1], in test [2] and in test [3] was above 25 µg/mL each time.
As to `C/C=C1/CN2CC[C@]34C(=Nc5ccccc53)[C@@H]2C[C@H]1C4(C(=O)OC)C(=O)OC(C)=O` (stereo partly specified), the IC50 in test [1], in test [2] and in test [3] was above 25 µg/mL each time.
With `COC(=O)N1c2ccc(OC)cc2[C@@]23CCN4CC[C@H](O)[C@@]5(CC[C@]12[C@](O)(C(=O)OC)[C@H]5O)[C@H]43` [KOPSILOSCINE E], the IC50 in test [1], in test [2] and in test [3] was above 25 µg/mL throughout.
In the case of `CC[C@]1(O)C[C@H]2CN(CCc3c([nH]c4ccccc34)[C@@](C(=O)OC)(c3cc4c(cc3OC)N(C=O)[C@H]3[C@@](O)(C(=O)OC)[C@H](OC(C)=O)[C@]5(CC)C=CCN6CC[C@]43[C@@H]65)C2)C1` [VINCRISTINE], the IC50 in test [4] was found to be 0.0028 µM; in test [5], 1.2 µM.
In the case of `C/C=C1/CN(C=O)[C@H]2C[C@H]1C(C(=O)OC)[C@@]13CCO[C@@]21Nc1ccccc13` (stereo partly specified) [ASPIDOPHYLLINE A], the IC50 was above 25 µg/mL in test [1], above 25 µg/mL in test [2] and 29.1 µM in test [3].
For the compound `CC[C@]12CCCn3ccc(c31)-c1ccccc1NC(=O)CC2` [RHAZINILAM], the IC50 in test [1] stood at 0.65 µM; in test [2], 0.83 µM; in test [3], 1.16 µM.
In the same order, the values of `CC[C@@]12CCC(=O)Nc3ccccc3-c3ccn(c31)C(=O)CC2` [RHAZINICINE] are 4.06 µM, 8.12 µM and 6.01 µM.
On to `COC(=O)N1c2ccccc2[C@@]23CCN4CCC[C@]5(CC[C@]12[C@](O)(C(=O)OC)[C@H]5O)[C@H]43` [KOPSILOSCINE B], for which the values for the IC50 in test [1], in test [2] and in test [3] were above 25 µg/mL, above 25 µg/mL and 11.7 µM, respectively.
As to `COC(=O)N1c2ccccc2[C@@]23CCN4CC=C[C@]5(CC[C@]12C(O)(C(=O)OC)C5O)[C@H]43` (stereo partly specified) [KOPSILOSCINE A], the values for the IC50 in test [1], in test [2] and in test [3] were 45.8 µM, 42.3 µM and 8.9 µM, respectively.
In the case of `CC[C@]12CCCn3c(C=O)cc(c31)-c1ccccc1NC(=O)CC2` [RHAZINAL], the IC50 was determined as 0.73 µM in test [1], 0.76 µM in test [2] and 0.93 µM in test [3].
In the same order, the values of `COC(=O)N1c2c(OC)cccc2[C@@]23CCN4CC[C@H](O)[C@@]5(CC[C@]12[C@](O)(C(=O)OC)[C@H]5O)[C@H]43` [KOPSILOSCINE F] are above 25 µg/mL, above 25 µg/mL and above 25 µg/mL.
The corresponding values for `COC(=O)[C@H]1C[C@@]23CCCN4CC[C@@]5(c6ccccc6N[C@]15CC2)[C@@H]43` are above 25 µg/mL, above 25 µg/mL and above 25 µg/mL.
